Reference: patent publication US8557790B2, “A3 adenoside receptor agonists for the reduction of intraocular pressure” (Can-Fite Biopharma Ltd., priority 2009, dated 2013)
“Also recorded” adds a separate entry of the source.

Test system: patients with moderate-to-severe Keratoconjunctivitis Sicca (KCS)
Assay: Phase 2 randomized, double-masked, placebo-controlled clinical study of oral IB-MECA; IOP measured at baseline and week 12
Format: in vivo, human
Procedure: A clinical study was conducted in patients with dry eye symptoms. The patients received an oral administration of IB-MECA at a dose of 1 mg or placebo, twice daily.
This study was a Phase 2, randomized, double-masked, placebo-controlled, parallel-group study in adult males and females, aged 18 years and over, with a diagnosis of moderate-to-severe Keratoconjunctivitis Sicca (KCS). Patients were randomized to receive either IB-MECA 1 mg or matching placebo, given orally, twice daily, for 12 weeks. A Screening Period of up to 4 weeks that includes a 2-week run-in period preceded a 12-week treatment period, followed by a 2-week follow-up period.
Some patients received either the IB-MECA capsules or a matching placebo and others received the IB-MECA tablets or a matching placebo.
Eligible patients to be included in the study were adult males or females, aged 18 years and over, with a diagnosis of moderate-to-severe KCS as defined by: • (1) at least 1 of the following ocular symptoms scored at ≧2, where 0=none and 4=very severe/interferes with normal activities: photophobia, blurred vision, foreign body sensation, soreness or pain, itching, burning, dryness; AND • (2) ST (without anesthesia)<7 mm/5 min in either eye; AND • (3) Positive FS, defined as a corneal punctuate fluorescein staining score of ≧1 in either eye, where 0=none and 3=severe. Use of topical ocular treatments was banned during the course of the study other than unreserved artificial tears (REFRESH) up to 8 times/day for the duration of the trial. Also banned was periocular cosmetic application. (c) Patients' Exclusion Criteria
Patients were excluded from the study if they had Sjögren's Syndrome with significant systemic non-exocrine gland involvement, Stevens-Johnson Syndrome, post-burn ocular injury, or chronic ocular disease other than KCS requiring topical treatment. Excluded were also patients being administered topical cyclosporine eye drops or systemic cyclosporine within 3 months prior to the Screening Visit; disease-modifying drugs, including methotrexate and biological agents, whose dose has been changed within 3 months prior to the Screening Visit or was expected to change during the trial; oral corticosteroids>10 mg prednisone, or equivalent, per day; or topical steroids within 2 weeks prior to the Screening Visit and for the duration of the study. […]

[1] = baseline to week 12, 1 mg orally twice daily, N=35

SMILES: CNC(=O)[C@H]1O[C@@H](n2cnc3c(NCc4cccc(I)c4)ncnc32)[C@H](O)[C@@H]1O [IB-MECA, N^6-(3-iodobenzyl)-adenosine-5′-N-methyluronamide]
- IOP % change, Mean [1]: −6.07%
- IOP change, Mean [1]: −1.14
- decrease in IOP (% change) (baseline to week 12, versus 1.95% in the placebo group, p<0.05): 6.07%
- IOP week 12, Mean (end of 12 weeks treatment, 1 mg orally twice daily, N=35): 13.00
- effect on IOP (in words) (human subjects, oral 1 mg twice daily, tested subjects in general and patients with elevated IOP in particular): decreasing IOP; also recorded: lowering of intraocular pressure; also recorded: much more pronounce decrease in IOP than the placebo group
- effect on dry eye symptoms (in words) (patients with dry eye symptoms, oral 1 mg twice daily): amelioration of some of the dry eye symptoms
- IOP at baseline, Mean (prior to first treatment, KCS patients, capsules and tablets pooled, N=35): 14.14
